# Assay results as given in article PMC5218480 (PLoS ONE, 2017).
# Tested on: MV-4-11 cells
# Assay: Gene expression microarray analysis (Affymetrix PrimeView) and GSEA
# Type: cell-based, human
# Set-up: RFU PODN (11730768_x_at) / Fold change /veh PODN (11730768_x_at) / RFU LINC00158 (11744669_a_at) / Fold change /veh LINC00158 (11744669_a_at) / RFU DUSP10 (11751237_a_at) / Fold change /veh DUSP10 (11751237_a_at) / RFU ID3 (11757404_x_at) / Fold change /veh ID3 (11757404_x_at) / RFU PLEKHG5 (11737974_s_at) / Fold change /veh PLEKHG5 (11737974_s_at) / RFU LRRC4B (11730491_at) / Fold change /veh LRRC4B (11730491_at) / RFU GIMAP4 (11747438_a_at) / Fold change /veh GIMAP4 (11747438_a_at) / RFU KRT8 (11758183_x_at) / Fold change /veh KRT8 (11758183_x_at) / RFU CNN1 (11734310_a_at) / Fold change /veh CNN1 (11734310_a_at) / RFU VPS37D (11726825_at) / Fold change /veh VPS37D (11726825_at) / RFU C10orf10 (11716522_x_at) / Fold change /veh C10orf10 (11716522_x_at) / RFU KIR2DL2 /// KIR2DL4 /// KIR2DL5A /// KIR2DL5B /// KIR2DS1 /// KIR2DS2 /// KIR2DS3 /// KIR2DS4 /// KIR3DL3 /// KIR3DL3 /// KIR3DS1 (11738374_at) / Fold change /veh KIR2DL2 /// KIR2DL4 /// KIR2DL5A /// KIR2DL5B /// KIR2DS1 /// KIR2DS2 /// KIR2DS3 /// KIR2DS4 /// KIR3DL3 /// KIR3DL3 /// KIR3DS1 (11738374_at) / RFU C1QL1 (11718748_at) / Fold change /veh C1QL1 (11718748_at) / RFU TMPRSS4 (11747572_a_at) / Fold change /veh TMPRSS4 (11747572_a_at) / RFU HAMP (11756126_x_at) / Fold change /veh HAMP (11756126_x_at) / RFU RNFT2 (11725882_a_at) / Fold change /veh RNFT2 (11725882_a_at) / RFU NR4A2 (11747474_a_at) / Fold change /veh NR4A2 (11747474_a_at) / RFU ABCC12 (11746883_a_at) / Fold change /veh ABCC12 (11746883_a_at) / RFU TMEM136 (11760407_x_at) / Fold change /veh TMEM136 (11760407_x_at) / RFU CLDN22 /// WWC2 (11732394_at) / Fold change /veh CLDN22 /// WWC2 (11732394_at) / RFU HLA-DPB1 (11760878_x_at) / Fold change /veh HLA-DPB1 (11760878_x_at) / RFU SPINT1 (11716480_a_at) / Fold change /veh SPINT1 (11716480_a_at) / RFU GAP43 (11754022_s_at) / Fold change /veh GAP43 (11754022_s_at) / RFU A4GNT (11735810_at) / Fold change /veh A4GNT (11735810_at) / RFU PRB3 (11715151_x_at) / Fold change /veh PRB3 (11715151_x_at) / RFU TUBB4B (11761932_at) / Fold change /veh TUBB4B (11761932_at) / RFU CAPN14 (11732068_a_at) / Fold change /veh CAPN14 (11732068_a_at) / RFU TMCC2 (11721928_a_at) / Fold change /veh TMCC2 (11721928_a_at) / RFU IRGQ (11745062_a_at) / Fold change /veh IRGQ (11745062_a_at) / RFU FAM174B (11720279_a_at) / Fold change /veh FAM174B (11720279_a_at) / RFU TMPRSS4 (11748680_a_at) / Fold change /veh TMPRSS4 (11748680_a_at) / RFU FAM212B (11763350_a_at) / Fold change /veh FAM212B (11763350_a_at) / RFU PLEKHG5 (11743358_a_at) / Fold change /veh PLEKHG5 (11743358_a_at) / RFU ZSCAN30 (11745921_a_at) / Fold change /veh ZSCAN30 (11745921_a_at) / RFU CMKLR1 (11741424_a_at) / Fold change /veh CMKLR1 (11741424_a_at) / RFU LOC101060620 /// MAPK8IP1 (11723275_at) / Fold change /veh LOC101060620 /// MAPK8IP1 (11723275_at) / RFU SPTSSB (11747773_x_at) / Fold change /veh SPTSSB (11747773_x_at) / RFU PRSS12 (11739890_at) / Fold change /veh PRSS12 (11739890_at) / RFU BIN1 (11741810_x_at) / Fold change /veh BIN1 (11741810_x_at) / RFU WNT11 (11732464_a_at) / Fold change /veh WNT11 (11732464_a_at) / RFU C10orf10 (11716521_a_at) / Fold change /veh C10orf10 (11716521_a_at) / RFU C5orf56 (11738089_at) / Fold change /veh C5orf56 (11738089_at) / RFU CYB561 (11721691_x_at) / Fold change /veh CYB561 (11721691_x_at) / RFU ANKRD19P (11752326_a_at) / Fold change /veh ANKRD19P (11752326_a_at) / RFU OR2T12 /// OR2T33 /// OR2T8 (11738714_s_at) / Fold change /veh OR2T12 /// OR2T33 /// OR2T8 (11738714_s_at) / RFU VCAN (11748164_a_at) / Fold change /veh VCAN (11748164_a_at) / RFU JSRP1 (11732532_at) / Fold change /veh JSRP1 (11732532_at) / RFU KRTAP10-11 (11738290_x_at) / Fold change /veh KRTAP10-11 (11738290_x_at) / RFU MYO3A (11730013_a_at) / Fold change /veh MYO3A (11730013_a_at) / RFU EBF3 (11725865_a_at) / Fold change /veh EBF3 (11725865_a_at) / RFU CAMK2N1 (11719241_x_at) / Fold change /veh CAMK2N1 (11719241_x_at) / RFU C5orf56 (11738088_a_at) / Fold change /veh C5orf56 (11738088_a_at) / RFU OLFML3 (11715873_a_at) / Fold change /veh OLFML3 (11715873_a_at) / RFU LOC100653217 /// NTM (11731650_a_at) / Fold change /veh LOC100653217 /// NTM (11731650_a_at) / RFU MAPK11 (11762145_a_at) / Fold change /veh MAPK11 (11762145_a_at) / RFU FIZ1 (11724087_x_at) / Fold change /veh FIZ1 (11724087_x_at) / RFU OASL (11726364_x_at) / Fold change /veh OASL (11726364_x_at) / RFU SOX15 (11748057_x_at) / Fold change /veh SOX15 (11748057_x_at) / RFU CD79A (11719716_a_at) / Fold change /veh CD79A (11719716_a_at) / RFU HIST1H1D (11736915_at) / Fold change /veh HIST1H1D (11736915_at) / RFU CASKIN2 (11723855_a_at) / Fold change /veh CASKIN2 (11723855_a_at) / RFU LOC730098 (11760151_x_at) / Fold change /veh LOC730098 (11760151_x_at) / RFU OR4N2 (11742367_at) / Fold change /veh OR4N2 (11742367_at) / RFU PRRT2 (11749266_a_at) / Fold change /veh PRRT2 (11749266_a_at) / RFU SNX32 (11753110_a_at) / Fold change /veh SNX32 (11753110_a_at) / RFU CDHR5 (11726645_a_at) / Fold change /veh CDHR5 (11726645_a_at) / RFU RCAN1 (11760418_a_at) / Fold change /veh RCAN1 (11760418_a_at) / RFU FAM167A (11723789_a_at) / Fold change /veh FAM167A (11723789_a_at) / RFU FAM26E (11764081_at) / Fold change /veh FAM26E (11764081_at) / RFU ISYNA1 (11749810_s_at) / Fold change /veh ISYNA1 (11749810_s_at) / RFU ACY1 (11761880_at) / Fold change /veh ACY1 (11761880_at) / RFU 11764098_at / Fold change /veh 11764098_at / RFU SAMD14 (11745864_x_at) / Fold change /veh SAMD14 (11745864_x_at) / RFU NPB (11741838_a_at) / Fold change /veh NPB (11741838_a_at) / RFU TMPRSS6 (11731388_a_at) / Fold change /veh TMPRSS6 (11731388_a_at) / RFU KRTAP10-2 (11738614_at) / Fold change /veh KRTAP10-2 (11738614_at) / RFU ARHGAP8 /// PRR5-ARHGAP8 (11727945_x_at) / Fold change /veh ARHGAP8 /// PRR5-ARHGAP8 (11727945_x_at) / RFU KRTAP5-7 /// NADSYN1 (11734609_at) / Fold change /veh KRTAP5-7 /// NADSYN1 (11734609_at) / RFU RASL12 (11751679_a_at) / Fold change /veh RASL12 (11751679_a_at) / RFU CDKN2B (11736163_a_at) / Fold change /veh CDKN2B (11736163_a_at) / RFU PRF1 (11729649_at) / Fold change /veh PRF1 (11729649_at) / RFU, ZNF638 /// ZNF638-IT1 / Fold change vs veh, ZNF638 /// ZNF638-IT1 / RFU, PANK3 / Fold change vs veh, PANK3 / RFU, SH3YL1 / Fold change vs veh, SH3YL1 / RFU, ZEB2 / Fold change vs veh, ZEB2 / RFU, NRIP1 / Fold change vs veh, NRIP1 / RFU, PTTG1IP / Fold change vs veh, PTTG1IP / RFU, CAPN2 / Fold change vs veh, CAPN2 / RFU, MED14 / Fold change vs veh, MED14 / RFU, SNORA58 / Fold change vs veh, SNORA58 / RFU, C1orf63 / Fold change vs veh, C1orf63 / RFU, LRRFIP1 / Fold change vs veh, LRRFIP1 / RFU, NDUFAF7 / Fold change vs veh, NDUFAF7 / RFU, SLC12A2 / Fold change vs veh, SLC12A2 / RFU, IBTK / Fold change vs veh, IBTK / RFU, ESF1 / Fold change vs veh, ESF1 / Fold change vs veh, TMEM50B / RFU, TAOK1 / Fold change vs veh, TAOK1 / RFU, ACBD3 / Fold change vs veh, ACBD3 / RFU, TMA16 / Fold change vs veh, TMA16 / RFU, RWDD3 / Fold change vs veh, RWDD3 / RFU, BCAT1 / Fold change vs veh, BCAT1 / RFU, EDEM3 / Fold change vs veh, EDEM3 / RFU, TMEM33 / Fold change vs veh, TMEM33 / RFU, WDR75 / Fold change vs veh, WDR75 / RFU, AHCTF1 / Fold change vs veh, AHCTF1 / RFU, TFRC / Fold change vs veh, TFRC / RFU, ZDHHC17 / Fold change vs veh, ZDHHC17 / RFU, NOM1 / Fold change vs veh, NOM1 / RFU, ARL8B / Fold change vs veh, ARL8B / RFU, ZBTB11 / Fold change vs veh, ZBTB11 / RFU, TAMM41 / Fold change vs veh, TAMM41 / RFU, KIAA1704 /// LOC100996395 / Fold change vs veh, KIAA1704 /// LOC100996395 / RFU, ING1 / Fold change vs veh, ING1 / RFU, TRMT61B / Fold change vs veh, TRMT61B / RFU, FUBP3 / Fold change vs veh, FUBP3 / RFU, TP53 / Fold change vs veh, TP53 / RFU, TNKS2 / Fold change vs veh, TNKS2 / RFU, ZFP14 / Fold change vs veh, ZFP14 / RFU, ACTR2 / Fold change vs veh, ACTR2 / RFU, PPP3R1 / Fold change vs veh, PPP3R1 / RFU, PIK3R1 / Fold change vs veh, PIK3R1 / RFU, HNRNPA1 / Fold change vs veh, HNRNPA1 / RFU, RNF170 / Fold change vs veh, RNF170 / RFU, ZNF28 / Fold change vs veh, ZNF28 / RFU, RNGTT / Fold change vs veh, RNGTT / RFU, OGT / Fold change vs veh, OGT / RFU, BRD1 / Fold change vs veh, BRD1 / RFU, MARS / Fold change vs veh, MARS / RFU, ZNF655 / Fold change vs veh, ZNF655 / RFU, FAHD1 / Fold change vs veh, FAHD1 / RFU, BDP1 / Fold change vs veh, BDP1 / RFU, LRRCC1 / Fold change vs veh, LRRCC1 / RFU, ARID1A / Fold change vs veh, ARID1A / RFU, ZNF146 / Fold change vs veh, ZNF146 / RFU, ZNF330 / Fold change vs veh, ZNF330 / RFU, GPN3 / Fold change vs veh, GPN3 / RFU, C9orf123 / Fold change vs veh, C9orf123 / RFU, N4BP2L2 / Fold change vs veh, N4BP2L2 / RFU, ARFIP1 / Fold change vs veh, ARFIP1 / RFU, FAM179B / Fold change vs veh, FAM179B / RFU, BCL10 / Fold change vs veh, BCL10 / RFU, UHRF1BP1L / Fold change vs veh, UHRF1BP1L / RFU, BET1 / Fold change vs veh, BET1 / RFU, CNOT2 / Fold change vs veh, CNOT2 / RFU, ZNF268 / Fold change vs veh, ZNF268 / Fold change vs veh, ZNF507 / RFU, DGCR2 / Fold change vs veh, DGCR2 / RFU, WDSUB1 / Fold change vs veh, WDSUB1 / Fold change vs veh, HSP90B1 /// MIR3652 / RFU, ADSS / Fold change vs veh, ADSS / RFU, GK / Fold change vs veh, GK / RFU, ZNF148 / Fold change vs veh, ZNF148 / RFU, TAF9 / Fold change vs veh, TAF9 / RFU, SLC1A5 / Fold change vs veh, SLC1A5 / RFU, SLMO2 / Fold change vs veh, SLMO2 / RFU, ABCC4 / Fold change vs veh, ABCC4 / RFU, LOC101060439 /// RAP1B / Fold change vs veh, LOC101060439 /// RAP1B / RFU, RFX7 / Fold change vs veh, RFX7 / RFU, GTPBP10 / Fold change vs veh, GTPBP10 / RFU, CNEP1R1 / Fold change vs veh, CNEP1R1 / RFU, BIVM-ERCC5 /// ERCC5 / Fold change vs veh, BIVM-ERCC5 /// ERCC5 / RFU, ILF3 / Fold change vs veh, ILF3 / RFU 11762660_at / Fold change /veh 11762660_at / RFU VCAN (11757783_s_at) / Fold change /veh VCAN (11757783_s_at) / RFU DDX43 (11728927_at) / Fold change /veh DDX43 (11728927_at) / RFU KRT8 (11758188_x_at) / Fold change /veh KRT8 (11758188_x_at) / RFU NKD1 (11759106_at) / Fold change /veh NKD1 (11759106_at) / RFU SRD5A1 (11742802_a_at) / Fold change /veh SRD5A1 (11742802_a_at) / RFU TPSAB1 /// TPSB2 (11721975_s_at) / Fold change /veh TPSAB1 /// TPSB2 (11721975_s_at) / RFU GSTM3 (11746129_a_at) / Fold change /veh GSTM3 (11746129_a_at) / RFU IL23R (11737362_x_at) / Fold change /veh IL23R (11737362_x_at) / RFU TMEM51 (11727254_a_at) / Fold change /veh TMEM51 (11727254_a_at) / RFU PIWIL2 (11732686_x_at) / Fold change /veh PIWIL2 (11732686_x_at) / RFU ORM1 (11744905_x_at) / Fold change /veh ORM1 (11744905_x_at) / RFU CCDC152 (11743942_at) / Fold change /veh CCDC152 (11743942_at) / RFU ECM1 (11717891_a_at) / Fold change /veh ECM1 (11717891_a_at) / RFU IL23R (11748794_a_at) / Fold change /veh IL23R (11748794_a_at) / RFU TNFAIP8L3 (11732012_x_at) / Fold change /veh TNFAIP8L3 (11732012_x_at) / RFU MBOAT4 (11741988_at) / Fold change /veh MBOAT4 (11741988_at) / RFU 11764193_at / Fold change /veh 11764193_at / RFU TMEM53 (11763286_at) / Fold change /veh TMEM53 (11763286_at) / RFU MAGEB2 (11727129_at) / Fold change /veh MAGEB2 (11727129_at) / RFU TMEM200A (11744735_a_at) / Fold change /veh TMEM200A (11744735_a_at) / RFU CCDC152 (11751479_a_at) / Fold change /veh CCDC152 (11751479_a_at) / RFU FAM211A (11726209_a_at) / Fold change /veh FAM211A (11726209_a_at) / RFU RGS16 (11746705_a_at) / Fold change /veh RGS16 (11746705_a_at) / RFU VCAN (11755009_s_at) / Fold change /veh VCAN (11755009_s_at) / RFU RHOB (11743442_s_at) / Fold change /veh RHOB (11743442_s_at) / RFU RGS16 (11720943_a_at) / Fold change /veh RGS16 (11720943_a_at) / RFU RGS16 (11720944_at) / Fold change /veh RGS16 (11720944_at) / RFU, VPS4B / Fold change vs veh, VPS4B / RFU, CREB1 / Fold change vs veh, CREB1 / RFU, DNAJC13 / Fold change vs veh, DNAJC13 / RFU, GNAQ / Fold change vs veh, GNAQ / RFU, CDK5R1 / Fold change vs veh, CDK5R1 / RFU, ZRANB3 / Fold change vs veh, ZRANB3 / RFU, CUL4A / Fold change vs veh, CUL4A / RFU, CCNY / Fold change vs veh, CCNY / RFU, UFL1 / Fold change vs veh, UFL1 / RFU, COG3 / Fold change vs veh, COG3 / RFU, DIAPH2 / Fold change vs veh, DIAPH2 / RFU, SKA2 / Fold change vs veh, SKA2 / RFU, AFF3 / Fold change vs veh, AFF3 / RFU, LMF1 / Fold change vs veh, LMF1 / RFU, IPO11 / Fold change vs veh, IPO11 / RFU, DFFB / Fold change vs veh, DFFB / RFU, FOXP1 / Fold change vs veh, FOXP1 / RFU, CARD8 / Fold change vs veh, CARD8 / RFU, STRN3 / Fold change vs veh, STRN3 / RFU, ADK / Fold change vs veh, ADK / RFU, RASSF2 / Fold change vs veh, RASSF2 / RFU, WIPF1 / Fold change vs veh, WIPF1 / RFU, LARP1B / Fold change vs veh, LARP1B / RFU, RASA1 / Fold change vs veh, RASA1 / RFU, RB1 / Fold change vs veh, RB1 / RFU, PPFIA1 / Fold change vs veh, PPFIA1 / RFU, MAT2A / Fold change vs veh, MAT2A / RFU, CCT5 / Fold change vs veh, CCT5 / RFU, WDR92 / Fold change vs veh, WDR92 / RFU, CUX1 / Fold change vs veh, CUX1 / RFU, TTC7A / Fold change vs veh, TTC7A / RFU, TMEM135 / Fold change vs veh, TMEM135 / RFU, DEPTOR / Fold change vs veh, DEPTOR / RFU, CPM / Fold change vs veh, CPM / RFU, DNAJB6 / Fold change vs veh, DNAJB6 / RFU, CACNA2D3 / Fold change vs veh, CACNA2D3 / RFU, DTX4 / Fold change vs veh, DTX4 / RFU, TFCP2 / Fold change vs veh, TFCP2 / RFU, GMCL1 /// GMCL1P1 / Fold change vs veh, GMCL1 /// GMCL1P1 / RFU, AEBP2 / Fold change vs veh, AEBP2 / RFU, SNHG1 /// SNORD22 /// SNORD25 /// SNORD26 /// SNORD27 /// SNORD28 /// SNORD29 /// SNORD31 / Fold change vs veh, SNHG1 /// SNORD22 /// SNORD25 /// SNORD26 /// SNORD27 /// SNORD28 /// SNORD29 /// SNORD31 / Fold change (Aza/veh), C12orf56 (ProbeSet 11735607_a_at) / Fold change (ACY-1035/veh), C12orf56 (ProbeSet 11735607_a_at) / Fold change (Aza/veh), FGFR1OP (ProbeSet 11751329_s_at) / Fold change (ACY-1035/veh), FGFR1OP (ProbeSet 11751329_s_at) / Fold change (Aza/veh), VPS36 (ProbeSet 11739960_a_at) / Fold change (ACY-1035/veh), VPS36 (ProbeSet 11739960_a_at) / RFU SYPL1 (11715823_x_at) / Fold change /veh SYPL1 (11715823_x_at) / RFU IGFBP7 (11715501_s_at) / Fold change /veh IGFBP7 (11715501_s_at) / RFU REEP3 (11722064_at) / Fold change /veh REEP3 (11722064_at) / RFU IGLL1 (11728026_x_at) / Fold change /veh IGLL1 (11728026_x_at): dose or concentration left out as unconfirmed
# Conditions: ProbeSet 11760938_a_at; LIST D
structure (smiles),measurement,value
Nc1ccc(-c2cccs2)cc1NC(=O)c1ccc2c(c1)cc(C1CC1)n2CCN1CCOCC1 [ACY-1035],"Fold change vs veh, MAT2A",0.84
